The values below come from a melting point compilation (Tetko et al.; mined from patent text by program, amines drawn as free bases though some values may be those of a salt).

By melting point is commonly meant the temperature of the solid-liquid transition. The compound `CN(C)c1ccc(-c2nc3cccnc3o2)cc1` came in with a melting point of 168 to 170 °C.

The compound `CC(C)(Cc1ccc(S(=O)C(F)(F)F)cc1)C(O)c1cncnc1` (centres undefined) had a melting point of 122 °C.

Regarding `CNC(=O)ON=C(Nc1ccc(C(F)(F)F)cc1)C1=NN(c2ccc(Cl)cc2)C(c2ccc(F)cc2)C1` (centres undefined), the melting point is 75 to 77 °C.

Turning to `Cn1ncc(C(=O)c2ccc(Cl)cc2Cl)c1OCc1ccc([N+](=O)[O-])cc1`, the melting point is 116 to 118 °C.

With `Nc1cc(-c2ccc([N+](=O)[O-])c(N)c2)ccc1[N+](=O)[O-]`, the melting point stood at 226 °C.

The compound `COc1ccc(OC)c2c1C(=O)C=C(SCCCCCCCCCCC(=O)O)C2=O` registered a melting point of 146 to 147 °C.

As for `Cc1ccc2cccc(OCc3c(Cl)ccc(S(=O)(=O)N4CCC[C@H]4C(=O)N(C)CCNC(=O)OC(C)(C)C)c3Cl)c2n1`, the melting point worked out at 88 °C.

In turn, `O=C(O)CCCC(=O)NCc1ccccc1` came in with a melting point of 83 to 84 °C.

Turning to `O=C(O)c1ccc(C(=C2SCCCS2)c2ccccc2)cc1`, the melting point is 261 to 262 °C.

On to `CC(Oc1c(C(=O)O)cc(Cl)cc1[N+](=O)[O-])C(=O)O` (centres undefined), for which the melting point is 190 °C.

Take `O=C1CCCc2nc3ccccc3c(NCc3ccccc3Cl)c21`: the melting point is 150 to 161 °C.

Compound `CC(=O)OC1Oc2ccc(C#N)cc2C1(C)C` (centres undefined) gave a melting point of 138 to 140 °C.

For `CN1CCC(c2c[nH]c3ccc(NC(=O)C4CCC4)nc23)CC1`, the melting point is 104 °C.

Take `Cn1cncc1C(O)(c1ccc(Cl)cc1)c1ccc2c(c1)C(c1cccc(Cl)c1)OCC(=S)N2` (centres undefined): the melting point is greater than 300 °C.

Compound `OC1CC2(CCNC2)c2ccc(F)cc21` (centres undefined) came in with a melting point of 162 to 164 °C.

For `COc1cc(OC)nc(NC(=O)Oc2ccccc2)n1`, the melting point fell in the range of 118 to 119 °C.

`CC(C)(C)OC(=O)N[C@H]1C(=O)N[C@H]1CON1C(=O)c2ccccc2C1=O` (relative stereo) showed a melting point of 218 to 219 °C.

The compound `COC(=O)c1ccc(Cl)c(CN2CCN(C)C2=O)c1Cl` had a melting point of 59 °C.

For the compound `O=C(NCCCn1cncn1)c1ccc(I)cc1`, the melting point is 132 to 134 °C.

`CC(C)(C)C(=O)OCn1cnc2c(OCc3ccccc3)nc(N)nc21` had a melting point of 161 to 162 °C.

`NCc1nnc2n1-c1ccc(Cl)cc1C(c1ccccc1)=NC2` displayed a melting point of 168 to 172 °C.

`CCOC(=O)CC1(O)C(=O)Nc2ccc(F)cc21` (centres undefined) yielded a melting point of 133 to 135 °C.

`C=CCN1C(=O)c2ccccc2Oc2nc(Cl)ccc21` registered a melting point of 110 to 112 °C.

In turn, `COc1cc(Nc2c(C#N)cnc3cc(Br)c(OC)cc23)c(Cl)cc1Cl` gave a melting point greater than 250 °C.

Regarding `Cc1ccc(Cc2ccc(-c3ccccc3)cc2)cc1`, the melting point was determined as 87 °C.

In turn, `COc1cc(Cl)c(Nc2nc(C)ccc2S(=O)(=O)c2ccc(OCc3ccccc3OC)cc2)cc1F` returned a melting point of 62 to 64 °C.

`Cc1cc2c(cc1Cl)N(C(=O)CN1CCN(c3ccccc3)CC1)c1ccccc1N(C)S2(=O)=O` registered a melting point of 194 to 196 °C.

The compound `O=C(/C=C/c1ccc(Cl)cc1)N1CCN(C(=O)c2cc(C(F)(F)F)cc(C(F)(F)F)c2)[C@H](Cc2c[nH]c3ccccc23)C1` gave a melting point of 125 to 138 °C.

On to `CC(C)CC(C=CCC(N)=O)NC(=O)C1CCCN1C(=O)OCc1ccccc1` (centres undefined), for which the melting point was in the range of 140 to 142 °C.

Take `OCc1ccc(/C=C/c2ccc[nH]2)cc1`: the melting point lay within 186 to 189 °C.

`COc1ccc2c(c1)c(CC(=O)O)c(C)n2C(=O)c1cccc(Cl)c1` registered a melting point of 90 to 92 °C.

As to `O=c1cc(O)c2c([nH]1)CCCCC2`, the melting point is greater than 270 °C.

As to `CCc1ccc(N(Cc2ccc(N3CCOCC3)cc2)C(=O)Nc2c(C(C)C)cccc2C(C)C)cc1`, the melting point lay within 159 to 161 °C.

Compound `COc1ccc(C2CCC(=O)N(CCN(C)C)c3ccccc3C2=O)cc1` (centres undefined) gave a melting point of 116 to 117 °C.

As to `O=C(O)Cc1cccc2c(=O)cc(-c3cc(F)cc(F)c3)oc12`, the melting point was in the range of 221 to 223 °C.

With `CCCCc1nc(SCCOC(C)=O)c(C(=O)OCC)[nH]1`, the melting point is 68 °C.

Compound `Nc1ncc(Cl)c(CN2CCCC2)c1Cl` registered a melting point of 98 to 101 °C.

As for `Cc1ccc(S(=O)(=O)OCC2COc3ccc([N+](=O)[O-])c(C=CC#N)c3O2)cc1` (centres undefined), the melting point was in the range of 117 to 118 °C.

The compound `OCCc1ccc(Cl)cc1CO` registered a melting point of 75 to 76 °C.

Regarding `C[C@]12CCC(=O)C=C1CC[C@@H]2c1cn[nH]n1`, the melting point is 126 to 129 °C.

Take `CN1CCN(c2ccc(N)cc2F)CC1`: the melting point was 89 to 91 °C.

`C#CC1(OC(=O)C(C)C)C(COC(=O)c2ccc(Cl)cc2)OC(n2ccc(N)nc2=O)C1OC(=O)C(C)C` (centres undefined) came in with a melting point of 106 to 108 °C.

As for `N#Cc1cccc(C(=O)Nc2cccc(-c3cccc4c3/C(=C/c3ccc[nH]3)C(=O)N4)c2)c1`, the melting point was in the range of 250 to 251 °C.

The compound `COC=C(C(=O)OC)c1csc2ccc(COc3ccccc3)cc12` displayed a melting point of 130 °C.

Compound `O=S(=O)(O)CC(O)CNCC(O)O` (centres undefined) returned a melting point of 189 to 190 °C.

Regarding `O=[N+]([O-])c1nccn1C1CCCO1` (centres undefined), the melting point came out at 91 °C.

`CCCc1nnc2n1N=C(c1ccc([N+](=O)[O-])cc1)c1cc(OC)c(Br)cc1C2` gave a melting point of 238 to 240 °C.

In the case of `CONC(=O)c1ccccc1S(=O)(=O)NC(=O)Nc1nc(C)cc(C)n1`, the melting point is 218 °C.

Compound `O=C(CN1CCN(c2ccccc2)CC1)Nc1ccc2c(c1NC(=O)c1ccccc1)C(=O)c1ccccc1C2=O` yielded a melting point of 225 to 226 °C.

With `O=C(O)CC(CCCCNS(=O)(=O)c1ccc(Cl)cc1)CCCc1cccnc1` (centres undefined), the melting point lay within 95 to 97 °C.

For the compound `O=C(Nc1ccc2c(c1)CCC(CCN1CCCC1)=C2)c1ccc(-c2ccc(Cl)cc2)cc1`, the melting point was 207 to 209 °C.

Turning to `Cc1nc(-c2ccc(O)cc2)cc(-c2cccc(Br)c2)c1C#N`, the melting point was in the range of 214 to 218 °C.

As for `COc1ccc(-c2cc(=O)c3cc(OCCCCCN4CCC(O)CC4)ccc3o2)cc1OC`, the melting point was 154 to 155 °C.

In turn, `COc1ccc(CC(C)N)cc1S(N)(=O)=O` (centres undefined) came in with a melting point of 180 °C.

For `CCOC(=O)c1cnn(-c2cc(C)cc(C)c2)c1N`, the melting point lay within 113 to 114 °C.

For `CCOc1nc(NC(C)=O)nc2ccc(Cl)nc12`, the melting point was 233 °C.

`COc1cc(C=C2SC(N3CCOCC3)=NC2=O)cc(-c2ccc(O)c(C34CC5CC(CC(C5)C3)C4)c2)c1O` registered a melting point of 335 to 338 °C.

`C(=C1/CCCc2ccccc21)/c1cnc[nH]1`: the melting point was 136 to 138 °C.

For `COc1ccc2c(c1)C(=O)c1c-2c(Cl)nc2ccc(F)cc12`, the melting point lay in the range of 149 to 150 °C.

The compound `CC(C)OC(=O)Nc1ccc(N)c([N+](=O)[O-])c1` registered a melting point of 173 to 175 °C.

As for `O=C(NO)C(=O)c1ccc(OCCOc2ccc3ccccc3c2)s1`, the melting point is 165 to 167 °C.

In turn, `O=C1CCCCN1[C@@H]1c2cc(C(F)(F)F)ccc2OC(CF)(CF)[C@H]1O` (relative stereo) displayed a melting point of 184 to 187 °C.

`CC(C)S(=O)(=O)c1ccc2c(c1)nc(CC1CCCC1)n2CC1CC1` showed a melting point of 137 °C.

`C#CCn1cc(C(=O)OCC)sc1=O` came in with a melting point of 70 to 71 °C.

Turning to `CCC1(CC)c2cc(-c3nc4ccccc4s3)ccc2-c2ccc(N(c3cccc(Oc4ccc([N+](=O)[O-])cc4)c3)c3cccc(Oc4ccc([N+](=O)[O-])cc4)c3)cc21`, the melting point is 200 to 201 °C.

For the compound `O=C(C=C1OC(=O)c2ccccc21)c1ccccc1`, the melting point worked out at 105 °C.

On to `CN(C)c1ccc(C=NCCc2cccs2)cc1`, for which the melting point was 76.8 to 77 °C.

Consider `CCCCc1nc2ccccc2n1CCC(=O)O`, for which the melting point lay in the range of 177 to 178 °C.

`CCOC(=O)C1CSC(c2nsc3ccc(-n4c(=O)cc(C(F)(F)F)n(C)c4=O)cc23)N1` (centres undefined): the melting point lay in the range of 97 to 98 °C.

Regarding `CCOC(=O)Nc1cnc(NCCCOc2cccc(CN3CCCCC3)c2)[nH]c1=O`, the melting point was in the range of 171 to 173 °C.

`COC(=O)[C@H](CC(C)C)NC(=O)c1ccc2c(c1)Nc1ccccc1S2` showed a melting point of 160 to 161 °C.

Consider `CCOC(=O)C1CN2c3c(cc4ccccc4c3CCC2C)C1=O` (centres undefined), for which the melting point lay in the range of 178 to 180 °C.

The compound `Nc1nc(C(Br)Br)nc(C(Br)Br)n1` displayed a melting point of 171 to 173 °C.

`CN1C(=O)CCC1c1cncc(Br)c1` (centres undefined) displayed a melting point of 85 to 87 °C.

With `COC(=O)c1cc(-n2cnnn2)ccc1OC`, the melting point fell in the range of 185 to 187 °C.

`CS(=O)(=O)c1ccc(-c2cc(=O)cc(CO)o2)cc1` came in with a melting point of 120 °C.

Regarding `CCCCc1nc(S(=O)(=O)c2ccc(OC)cc2)c(C(=O)O)n1Cc1cc2c(cc1Cl)OCO2`, the melting point came out at 154 °C.

`Cc1cc(C2CC2)nc(NN)n1` had a melting point of 98 to 99 °C.

Compound `CCN(CCCCCN(CCCCCN(CC)S(=O)(=O)c1c(C)cc(C)cc1C)S(=O)(=O)c1c(C)cc(C)cc1C)S(=O)(=O)c1c(C)cc(C)cc1C` returned a melting point of 60 to 62 °C.

The compound `Nc1ccc(Oc2c(N3CCCC3)cc(C(=O)O)cc2S(N)(=O)=O)cc1` returned a melting point of 234 to 240 °C.

`CN1CCN(c2ccc(NC=C3C(=O)NC(=O)c4ccc(OCCN5CCOCC5)cc43)cc2)CC1`: the melting point lay within 142 to 143 °C.

The compound `COC(=O)CCCC(=O)c1cc2c(c(S(=O)(=O)Cl)c1)OCC2` yielded a melting point of 78 to 79 °C.

The compound `CCOC(=NC(=O)CCl)N1Cc2ccccc2-c2ccccc2C1` had a melting point of 87 to 89 °C.

With `C#Cc1cn(C2CC(O)C(COC(=O)C(C)(C)C)O2)c(=O)[nH]c1=O` (centres undefined), the melting point fell in the range of 64 to 66 °C.

Compound `CCCCCCCC=CC1=Nc2ccc(F)cc2C(=O)C1C` (centres undefined) showed a melting point of 192 to 193 °C.

In turn, `CC(C)c1cccc(C(C)C)c1NC(=O)CC(=O)CC(c1ccccc1)c1ccccc1` showed a melting point of 146 to 148 °C.

Consider `CCCn1nc2c(N)nc3ccccc3c2c1CCCc1ccn(Cc2ccccc2)c1`, for which the melting point was in the range of 138 to 140 °C.

The compound `COc1ccc(OCC(O)CNC(C)(C)C)c(C)c1C` (centres undefined) registered a melting point of 73 to 75 °C.

With `O=CNc1cccc2ccc(O)cc12`, the melting point lay within 203 to 205 °C.
